{"source": "patent US10377719B2", "about": "“Trypanosomes inhibitors” (Hoffmann-La Roche Inc., priority 2015, dated 2019)"}
{"system": "Trypanosoma brucei rhodesiense STIB900", "test": "Activity against Trypanosoma brucei rhodesiense STIB900 (Alamar Blue assay)", "type": "cell-based", "conditions": "Trypanosoma brucei, 70 h, bloodstream forms of T. b. rhodesiense STIB 900, 70 h incubation", "procedure": "Activity Against Trypanosoma brucei Rhodesiense STIB900\nThis stock was isolated in 1982 from a human patient in Tanzania and after several mouse passages cloned and adapted to axenic culture conditions (Baltz, T., D. Baltz, C. Giroud, and J. Crockett. 1985, Cultivation in a semi-defined medium of animal infective forms of Trypanosoma brucei, T. equiperdum, T. evansi, T. rhodesiense and T. gambiense. EMBO Journal 4:1273-1277). Minimum Essential Medium (50 μl) supplemented with 25 mM HEPES, 1 g/l additional glucose, 1% MEM non-essential amino acids (100×), 0.2 mM 2-mercaptoethanol, 1 mM Na-pyruvate and 15% heat inactivated horse serum was added to each well of a 96-well microtiter plate. Serial drug dilutions of eleven 3-fold dilution steps covering a range from […] were prepared. Then 4×10^3 bloodstream forms of T. b. rhodesiense STIB 900 in 50 μl was added to each well and the plate incubated at 37° C. under a 5% CO2 atmosphere for 70 h. 10 μl Alamar Blue (resazurin, 12.5 mg in 100 ml double-distilled water) was then added to each well and incubation continued for a further 2-4 h (Räz, B., M. Iten, Y. Grether-Buhler, R. Kaminsky, and R. Brun. 1997, The Alamar Blue assay to determine drug sensitivity of African trypanosomes (T.b. rhodesiense and T.b. gambiense) in vitro. Acta Trop 68:139-47). Then the plates were read with a Spectramax Gemini XS microplate fluorometer (Molecular Devices Cooperation, Sunnyvale, Calif., USA) using an excitation wave length of 536 nm and an emission wave length of 588 nm. The IC50 values were calculated by linear regression (Huber, W. Koella, J. C. 1993, A comparison of the three methods of estimating EC50 in studies of drug resistance of malaria parasites. Acta Trop. 55, 257-261) from the sigmoidal dose inhibition curves using SoftmaxPro software (Molecular Devices Cooperation, Sunnyvale, Calif., USA). Melarsoprol is used as control.", "units": {"IC50": "µM"}}
{"smiles": "N#CC1(NC(=O)[C@H](Cc2ccc(OC(F)(F)F)c(Cl)c2)NC(=O)c2cnn(-c3cccnc3)n2)CC1", "note": "[Example 26, N-[(2S)-3-[3-chloro-4-(trifluoromethoxy)phenyl]-1-[(1-cyanocyclopropyl)amino]-1-oxopropan-2-yl]-2-pyridin-3-yltriazole-4-carboxamide]", "IC50": 0.001}
{"smiles": "N#CC1(NC(=O)[C@H](Cc2ccccc2)NC(=O)c2cnn(-c3ccc(F)cc3)n2)CC1", "note": "[Example 27, N-[(2S)-1-[(1-cyanocyclopropyl)amino]-1-oxo-3-phenylpropan-2-yl]-2-(4-fluorophenyl)triazole-4-carboxamide]", "IC50": 0.516}
{"smiles": "N#CC1(NC(=O)[C@H](Cc2ccc(OCC3CC3)c(Cl)c2)NC(=O)c2cnn(-c3ccc(F)cc3)n2)CC1", "note": "[Example 28, N-[(2S)-3-[3-chloro-4-(cyclopropylmethoxy)phenyl]-1-[(1-cyanocyclopropyl)amino]-1-oxopropan-2-yl]-2-(4-fluorophenyl)triazole-4-carboxamide]", "IC50": 0.19}
{"smiles": "N#CC1(NC(=O)[C@H](Cc2ccc(Cl)c(Cl)c2)NC(=O)c2cnn(-c3ccc(F)cc3)n2)CC1", "note": "[Example 29, N-[(2S)-1-[(1-cyanocyclopropyl)amino]-3-(3,4-dichlorophenyl)-1-oxopropan-2-yl]-2-(4-fluorophenyl)triazole-4-carboxamide]", "IC50": 0.007}
{"smiles": "N#CC1(NC(=O)[C@H](Cc2ccc(OC(F)(F)F)c(Cl)c2)NC(=O)c2cnn(-c3ccc(F)nc3)n2)CC1", "note": "[Example 30, N-[(2S)-3-[3-chloro-4-(trifluoromethoxy)phenyl]-1-[(1-cyanocyclopropyl)amino]-1-oxopropan-2-yl]-2-(6-fluoropyridin-3-yl)triazole-4-carboxamide]", "IC50": 0.005}
{"smiles": "N#CC1(NC(=O)[C@H](Cc2ccc(OCc3ccccc3)cc2)NC(=O)c2cnn(-c3ccc(F)cc3)n2)CC1", "note": "[Example 31, N-[(2S)-1-[(1-cyanocyclopropyl)amino]-1-oxo-3-(4-phenylmethoxyphenyl)propan-2-yl]-2-(4-fluorophenyl)triazole-4-carboxamide]", "IC50": 0.019}
{"smiles": "CC(C)C[C@H](NC(=O)c1cnn(-c2ccc(F)cc2)n1)C(=O)NC1(C#N)CC1", "note": "[Example 32, N-[(2S)-1-[(1-cyanocyclopropyl)amino]-4-methyl-1-oxopentan-2-yl]-2-(4-fluorophenyl)triazole-4-carboxamide]", "IC50": 2.23}
{"smiles": "CC(C)n1ncc(C(=O)N[C@@H](Cc2ccc(OC(F)(F)F)c(Cl)c2)C(=O)NC2(C#N)CC2)n1", "note": "[Example 33, N-[(2S)-3-[3-chloro-4-(trifluoromethoxy)phenyl]-1-[(1-cyanocyclopropyl)amino]-1-oxopropan-2-yl]-2-propan-2-yltriazole-4-carboxamide]", "IC50": 0.004}
{"smiles": "Cn1ncc(C(=O)N[C@@H](Cc2ccc(OC(F)(F)F)c(Cl)c2)C(=O)NC2(C#N)CC2)n1", "note": "[Example 34, N-[(2S)-3-[3-chloro-4-(trifluoromethoxy)phenyl]-1-[(1-cyanocyclopropyl)amino]-1-oxopropan-2-yl]-2-methyltriazole-4-carboxamide]", "IC50": 0.04}
{"smiles": "N#CC1(NC(=O)[C@H](Cc2ccc(OC(F)(F)F)c(Cl)c2)NC(=O)c2cnn(-c3ccc(Br)cc3)n2)CC1", "note": "[Example 35, 2-(4-bromophenyl)-N-[(2S)-3-[3-chloro-4-(trifluoromethoxy)phenyl]-1-[(1-cyanocyclopropyl)amino]-1-oxopropan-2-yl]triazole-4-carboxamide]", "IC50": 0.028}
{"smiles": "COCCOc1ccc(C[C@H](NC(=O)c2cnn(-c3ccc(F)cc3)n2)C(=O)NC2(C#N)CC2)cc1Cl", "note": "[Example 36, N-[(2S)-3-[3-chloro-4-(2-methoxyethoxy)phenyl]-1-[(1-cyanocyclopropyl)amino]-1-oxopropan-2-yl]-2-(4-fluorophenyl)triazole-4-carboxamide]", "IC50": 0.065}
{"smiles": "CC(C)(C)n1ncc(C(=O)N[C@@H](Cc2ccc(OC(F)(F)F)c(Cl)c2)C(=O)NC2(C#N)CC2)n1", "note": "[Example 37, 2-tert-butyl-N-[(2S)-3-[3-chloro-4-(trifluoromethoxy)phenyl]-1-[(1-cyanocyclopropyl)amino]-1-oxopropan-2-yl]triazole-4-carboxamide]", "IC50": 0.004}
